Tested on: Plasmodium berghei
Test: Luciferase/luciferin-expressing antifolate-resistant parasites were used to infect a culture of HepG2 cells that were pre-incubated with compounds. Infected hepatocytes emit light due to the luciferase reaction. Assay results are presented as the percent inhibition of light emission compared to control. […]
Format: functional
Conditions: sporozoite; for IC90: read-out: LUCIFERASE INFECTION ASSAY - IC90
[1] = read-out: LUCIFERASE INFECTION ASSAY - IC50

| SMILES | IC90 [µM] | other results |
| --- | --- | --- |
| Cn1ccnc1Sc1ncnc2sccc12 | 3.92 | IC50 (PBLUC_HILL_SLOPE 5.04, PBLUC_R_SQUARED 0.521, read-out: LUCIFERASE INFECTION ASSAY - IC50): 2.53 µM |
| CC(C)N(c1ccccc1)c1ccc(NC(=O)Nc2ccccc2)cc1 | 3.58 | IC50 (PBLUC_HILL_SLOPE 27.4, PBLUC_R_SQUARED 0.0577, read-out: LUCIFERASE INFECTION ASSAY - IC50): 3.31 µM |
| Cn1ccc2cc(-c3cn4c(-c5cccc(CO)c5)cnc4cn3)ccc21 | 1.22 | IC50 (HEPG2TOX_HILL_SLOPE 0.928, HEPG2TOX_R_SQUARED 0.91, PBLUC_HILL_SLOPE 2.22, PBLUC_R_SQUARED 0.697, read-out: LUCIFERASE INFECTION ASSAY - IC50): 0.452 µM |
| O=C(Nc1cc(Cl)cc(Cl)c1)c1cc(Cl)c(-n2cccc2)c(Cl)c1 | 4.35 | IC50 (FFLUC_HILL_SLOPE 1.91, FFLUC_R_SQUARED 0.0412, HEPG2TOX_HILL_SLOPE 16.8, HEPG2TOX_R_SQUARED 0.892, PBLUC_HILL_SLOPE 9.75, PBLUC_R_SQUARED 0.262, read-out: LUCIFERASE INFECTION ASSAY - IC50): 3.47 µM |
| COc1ccccc1Nc1nc(-c2c(-c3ccc(Cl)cc3Cl)noc2C)cs1 | 7.32 | IC50 [1]: 2.27 µM |
| Cc1cc(C)c(S(=O)(=O)N2CCN(C(=O)/C(=C/c3cccc(F)c3)n3nnnc3C)CC2)c(C)c1 | 3.73 | IC50 [1]: 1.61 µM |
| N#C/C(=N\Nc1cc(C(F)(F)F)cc(C(F)(F)F)c1)C(=O)c1ccco1 | 8.44 | IC50 (FFLUC_HILL_SLOPE 13.1, FFLUC_R_SQUARED 0.556, HEPG2TOX_HILL_SLOPE 1.19, HEPG2TOX_R_SQUARED 0.748, PBLUC_HILL_SLOPE 4.82, PBLUC_R_SQUARED 0.319, read-out: LUCIFERASE INFECTION ASSAY - IC50): 5.35 µM |
| CCN(CC)S(=O)(=O)c1cccc(-c2nnc(SCC(=O)N3CCc4ccccc43)n2-c2ccccc2)c1 | > 10 | IC50 [1]: > 10 µM |
| Cc1ccc(NC(=O)Cc2nc(-c3ccc4c(c3)OCO4)cs2)c(C)c1 | > 10 | IC50 (PBLUC_HILL_SLOPE 12.9, PBLUC_R_SQUARED 0.436, read-out: LUCIFERASE INFECTION ASSAY - IC50): 8.84 µM |
| CCOC(=O)c1nn(CCc2ccccc2)c2c1CN(C(=O)c1cc(C)n[nH]1)CC2 | > 8.1 | IC50 (PBLUC_HILL_SLOPE 3.03, PBLUC_R_SQUARED 0.7, read-out: LUCIFERASE INFECTION ASSAY - IC50): 4.26 µM |
| c1ccc(-c2ccnc3c2ccc2c(-c4ccccc4)ccnc23)cc1 | 1.74 | IC50 (HEPG2TOX_HILL_SLOPE 2.07, HEPG2TOX_R_SQUARED 0.947, PBLUC_HILL_SLOPE 9.72, PBLUC_R_SQUARED 0.861, read-out: LUCIFERASE INFECTION ASSAY - IC50): 1.39 µM |
| Nc1cc(Cl)ccc1Oc1ccc2ccccc2c1 | > 10 | IC50 [1]: > 10 µM |
| CC1CCc2c(C(=O)Nc3cccc(Br)c3)csc2C1 (configuration not stated) | > 9.42 | IC50 (PBLUC_HILL_SLOPE 12.9, PBLUC_R_SQUARED 0.0655, read-out: LUCIFERASE INFECTION ASSAY - IC50): 9.3 µM |
| O=C(NC1CC1)c1ccc(CN(C2CC2)S(=O)(=O)c2ccc3c(c2)OCCCO3)cc1 | 5.38 | IC50 (PBLUC_HILL_SLOPE 2.85, PBLUC_R_SQUARED 0.458, read-out: LUCIFERASE INFECTION ASSAY - IC50): 2.49 µM |
| N#CC1(c2ccccc2)C/C(=C\c2cccs2)C(=O)/C(=C/c2cccs2)C1 (configuration not stated) | > 10 | IC50 (FFLUC_HILL_SLOPE 0.232, FFLUC_R_SQUARED 0.325, read-out: LUCIFERASE INFECTION ASSAY - IC50): > 10 µM |
| Cc1ccc(CSc2nc(C)c(Oc3ccc(F)cc3)c(=O)n2C)cc1 | > 8.91 | IC50 [1]: > 8.91 µM |
| CCCCOc1ccc(C(=O)NCC(=O)N2CCN(C/C=C/c3ccccc3)CC2)cc1 | 7.33 | IC50 [1]: 5.03 µM |
| Cc1ccc(/N=c2\scc(-c3cccc(C(F)(F)F)c3)n2/N=C/c2ccc3ncccc3c2)c(C)c1 | > 10 | IC50 (FFLUC_HILL_SLOPE 2.84, FFLUC_R_SQUARED 0.529, read-out: LUCIFERASE INFECTION ASSAY - IC50): > 10 µM |
| CCCn1c(NC(=O)CSc2ccc3c4c(cccc24)C(=O)c2ccccc2-3)nc2ccccc21 | 3.87 | IC50 (PBLUC_HILL_SLOPE 16.8, PBLUC_R_SQUARED 0.332, read-out: LUCIFERASE INFECTION ASSAY - IC50): 3.39 µM |
| CCn1c(CNC(=O)C2CCN(c3ccc(C#N)cn3)CC2)nc2ccccc21 | > 10 | IC50 (PBLUC_HILL_SLOPE 0.433, PBLUC_R_SQUARED 0.506, read-out: LUCIFERASE INFECTION ASSAY - IC50): 4.94 µM |
| OCc1ccc(-c2cnc3cnc(-c4cccnc4)cn23)cc1 | 7.72 | IC50 (PBLUC_HILL_SLOPE 5.76, PBLUC_R_SQUARED 0.27, read-out: LUCIFERASE INFECTION ASSAY - IC50): 5.27 µM |

| SMILES | IC90 [µM] | other results |
| --- | --- | --- |
| COc1cc(Nc2ccn3ncc(-c4ccc(N)cc4)c3n2)cc(OC)c1OC | 3.83 | IC50 (HEPG2TOX_HILL_SLOPE 3.9, HEPG2TOX_R_SQUARED 0.655, PBLUC_HILL_SLOPE 12, PBLUC_R_SQUARED 0.445, read-out: LUCIFERASE INFECTION ASSAY - IC50): 3.19 µM |
| CCCSc1ccc2c3c(cccc13)C(=O)N(CCc1ccccn1)C2=O | > 8.77 | IC50 [1]: > 8.77 µM |
| COc1ccc(OC)c(CN2CCN(c3nc(-c4cccnc4)nc4sc(C)c(C)c34)CC2)c1 | 6.84 | IC50 (PBLUC_HILL_SLOPE 4.71, PBLUC_R_SQUARED 0.569, read-out: LUCIFERASE INFECTION ASSAY - IC50): 4.29 µM |
| O=C(c1cc(C(=O)N2CCCC2)c2nc3scc(-c4ccccc4)c3c(=O)n2c1)c1cc(F)ccc1O | > 10 | IC50 (FFLUC_HILL_SLOPE 12.4, FFLUC_R_SQUARED 0.51, HEPG2TOX_HILL_SLOPE 7.25, HEPG2TOX_R_SQUARED 0.253, PBLUC_HILL_SLOPE 65.5, PBLUC_R_SQUARED 0.659, read-out: LUCIFERASE INFECTION ASSAY - IC50): 9.78 µM |
| O=c1nc(-c2ccc3c(c2)OCCO3)[nH]c2sc(-c3ccccc3)cc12 | 4.31 | IC50 (HEPG2TOX_HILL_SLOPE 1.86, HEPG2TOX_R_SQUARED 0.902, PBLUC_HILL_SLOPE 1.77, PBLUC_R_SQUARED 0.594, read-out: LUCIFERASE INFECTION ASSAY - IC50): 1.25 µM |
| COc1cc(-c2nc3ccc(NC(=O)c4c(C)noc4C)cn3n2)cc(OC)c1OC | > 10 | IC50 [1]: > 10 µM |
| CC(=O)c1c(C)[nH]c(C(=O)Nc2ccc(Oc3ccccc3Cl)cc2)c1C | 7.08 | IC50 (HEPG2TOX_HILL_SLOPE 17, HEPG2TOX_R_SQUARED 0.739, PBLUC_HILL_SLOPE 1.26, 0.690, PBLUC_R_SQUARED 0.562, 0.913, read-out: LUCIFERASE INFECTION ASSAY - IC50): 0.831 µM |
| Cc1cc(C(=O)ONC(=N)c2ccccc2)nn1C(C)(C)C | 1.23 | IC50 (FFLUC_HILL_SLOPE 2.36, FFLUC_R_SQUARED 0.364, PBLUC_HILL_SLOPE 1.16, PBLUC_R_SQUARED 0.78, read-out: LUCIFERASE INFECTION ASSAY - IC50): 0.186 µM |
| Cc1ccc(Oc2ccc(OCC(=O)NCCNc3ccc4ccccc4c3)cc2)cc1 | 6.61 | IC50 (HEPG2TOX_HILL_SLOPE 2.47, HEPG2TOX_R_SQUARED 0.879, PBLUC_HILL_SLOPE 3.02, PBLUC_R_SQUARED 0.699, read-out: LUCIFERASE INFECTION ASSAY - IC50): 3.2 µM |
| COc1ccc(-c2cnc3sc(NCc4ccncc4)nn23)cc1OC | > 8.98 | IC50 [1]: > 8.98 µM |
| Cc1cc(O)nc(N/N=C/c2cc(C)n(CC(F)(F)F)c2C)n1 | > 10 | IC50 (HEPG2TOX_HILL_SLOPE 2.49, HEPG2TOX_R_SQUARED 0.474, PBLUC_HILL_SLOPE 1.68, PBLUC_R_SQUARED 0.728, read-out: LUCIFERASE INFECTION ASSAY - IC50): 3.36 µM |
| FC(F)(F)c1ccccc1NC(=S)N1CCCN(c2nc3ccc(Cl)cc3s2)CC1 | 2.54 | IC50 [1]: 2.32 µM |
| CCC(C)NC(=O)c1c(NC(=O)c2ccc(F)cc2F)nc2ccc(C)cn12 (configuration not stated) | 3.23 | IC50 [1]: 2.9 µM |
| COc1ccc(CCNC(=O)c2c(S)n(-c3ccc(C)cc3)c3cccc[n+]23)cc1 | 9.33 | IC50 (HEPG2TOX_HILL_SLOPE 12.1, HEPG2TOX_R_SQUARED 0.69, PBLUC_HILL_SLOPE 9.57, PBLUC_R_SQUARED 0.712, read-out: LUCIFERASE INFECTION ASSAY - IC50): 7.42 µM |
| CCc1ccc(NC(=O)c2ccc(S(=O)(=O)N(C)C)cc2)cc1 | > 9.93 | IC50 (HEPG2TOX_HILL_SLOPE 5.62, HEPG2TOX_R_SQUARED 0.338, PBLUC_HILL_SLOPE 17.2, PBLUC_R_SQUARED 0.289, read-out: LUCIFERASE INFECTION ASSAY - IC50): 9.7 µM |
| CNC(=O)c1cccc(-c2ccc3ncc(-c4cccc(C(F)(F)F)c4)n3n2)c1 | 2.95 | IC50 (HEPG2TOX_HILL_SLOPE 1.58, HEPG2TOX_R_SQUARED 0.903, PBLUC_HILL_SLOPE 3.01, PBLUC_R_SQUARED 0.663, read-out: LUCIFERASE INFECTION ASSAY - IC50): 1.42 µM |
| CSc1sc(C(=O)NN=C(C)C)c2c1C(O)CCC2 (configuration not stated) | > 11.1 | IC50 (HEPG2TOX_HILL_SLOPE 6.67, HEPG2TOX_R_SQUARED 0.767, PBLUC_HILL_SLOPE 1.8, PBLUC_R_SQUARED 0.584, read-out: LUCIFERASE INFECTION ASSAY - IC50): 10.2 µM |
| COC(=O)c1c(C)[nH]c(C(=O)Nc2nc(-c3cc(C)sc3C)cs2)c1C | > 10 | IC50 (HEPG2TOX_HILL_SLOPE 5.44, HEPG2TOX_R_SQUARED 0.234, read-out: LUCIFERASE INFECTION ASSAY - IC50): > 10 µM |
| Cc1c(C)n(Cc2ccccc2)c2ncn3nc(-c4cccnc4)nc3c12 | > 9.31 | IC50 [1]: > 9.31 µM |
| c1ccc(-c2cc3c(Oc4ccc(-n5ccnc5)cc4)ncnc3s2)cc1 | > 10 | IC50 (PBLUC_HILL_SLOPE 1.81, PBLUC_R_SQUARED 0.315, read-out: LUCIFERASE INFECTION ASSAY - IC50): 6.93 µM |
